Source: ChEMBL document CHEMBL4152355, “Novel multi-target compounds in the quest for new chemotherapies against Alzheimer's disease: An experimental and theoretical study” (Bioorg Med Chem, 2018)
Active and inactive are the calls of the source. The calls are words filed in the database; no cut-off is given here.

What was measured:
Beta-secretase 1 [1] = target: T1, Beta-secretase 1 (Homo sapiens, UniProt P56817); assay: Inhibition of BACE 1 (unknown origin) at 50 uM using Rh-EVNLDAEFK-Quencher as substrate after 1 hr by FRET assay relative to control
Beta-secretase 1 [2] = target: T1, Beta-secretase 1; assay: Inhibition of BACE 1 (unknown origin) using 250 nM of Rh-EVNLDAEFK-Quencher as substrate after 1 hr by FRET assay
Beta-secretase 1 [3] = target: T1, Beta-secretase 1; assay: Inhibition of BACE 1 (unknown origin) using 500 nM of Rh-EVNLDAEFK-Quencher as substrate after 1 hr by FRET assay
Beta-secretase 1 [4] = target: T1, Beta-secretase 1; assay: Inhibition of BACE 1 (unknown origin) at 10 to 50 uM using Rh-EVNLDAEFK-Quencher as substrate after 1 hr by FRET assay relative to control
[5] = Metal chelating activity assessed as compound-Cu2+ adduct formation by spectrophotometric analysis
[6] = Metal chelating activity assessed as compound-Cu2+ adduct formation at 20 uM by spectrophotometric titration analysis
[7] = Metal chelating activity assessed as inhibition of Cu2+ induced amyloid beta (1 to 40) aggregation by measuring decrease in ROS production at 2 equiv after 75 mins by fluorescence assay
[8] = Antioxidant activity assessed as AAPH radical scavenging activity at 1 to 16 uM by ORAC assay; format: functional
[9] = Inhibition of Cu2+ induced amyloid beta (1 to 40) fibril aggregation assessed as fluorescence emission at 100 uM measured on day 3 by thioflavin-T based assay (reference value: 33.64 +/- 5.80)
[10] = Inhibition of Cu2+ induced amyloid beta (1 to 40) fibril aggregation assessed as aggregation level at 100 uM measured on day 3 by UV-visible turbidity method (reference value: 100 +/- 17.24%); set-up: scale not given: the % may be the effect or the level left
[11] = Inhibition of Cu2+ induced amyloid beta (1 to 40) fibril aggregation assessed as fluorescence emission at 100 uM measured on day 7 by thioflavin-T based assay (reference value: 181.04 +/- 1.74)
[12] = Inhibition of Cu2+ induced amyloid beta (1 to 40) fibril aggregation assessed as aggregation level at 100 uM measured on day 7 by UV-visible turbidity method (reference value: 100 +/- 0.96%); set-up: scale not given: the % may be the effect or the level left
[13] = Inhibition of Cu2+ induced amyloid beta (1 to 40) fibril aggregation assessed as fluorescence emission at 100 uM measured on day 10 by thioflavin-T based assay (reference value: 412.11 +/- 35.93)
[14] = Inhibition of Cu2+ induced amyloid beta (1 to 40) fibril aggregation assessed as aggregation level at 100 uM measured on day 10 by UV-visible turbidity method (reference value: 100 +/- 8.72%); set-up: scale not given: the % may be the effect or the level left
[15] = target: Amyloid-beta precursor protein (Homo sapiens) (UniProt P05067); assay: Inhibition of self-induced amyloid beta (1 to 40) (unknown origin) fibril aggregation assessed as fluorescence emission at 100 uM measured on day 3 by thioflavin-T based assay
[16] = target: Amyloid-beta precursor protein (Homo sapiens) (UniProt P05067); assay: Inhibition of self-induced amyloid beta (1 to 40) (unknown origin) fibril aggregation assessed as aggregation level at 100 uM measured on day 3 by UV-visible turbidity method; set-up: scale not given: the % may be the effect or the level left
[17] = target: Amyloid-beta precursor protein (Homo sapiens) (UniProt P05067); assay: Inhibition of self-induced amyloid beta (1 to 40) (unknown origin) fibril aggregation assessed as fluorescence emission at 100 uM measured on day 7 by thioflavin-T based assay
[18] = target: Amyloid-beta precursor protein (Homo sapiens) (UniProt P05067); assay: Inhibition of self-induced amyloid beta (1 to 40) (unknown origin) fibril aggregation assessed as aggregation level at 100 uM measured on day 7 by UV-visible turbidity method; set-up: scale not given: the % may be the effect or the level left
[19] = target: Amyloid-beta precursor protein (Homo sapiens) (UniProt P05067); assay: Inhibition of self-induced amyloid beta (1 to 40) (unknown origin) fibril aggregation assessed as fluorescence emission at 100 uM measured on day 10 by thioflavin-T based assay; set-up: reference not given here
[20] = target: Amyloid-beta precursor protein (Homo sapiens) (UniProt P05067); assay: Inhibition of self-induced amyloid beta (1 to 40) (unknown origin) fibril aggregation assessed as aggregation level at 100 uM measured on day 10 by UV-visible turbidity method; set-up: scale not given: the % may be the effect or the level left
[21] = Disaggregation of Cu2+ induced amyloid beta (1 to 40) preformed fibrils assessed as fluorescence emission at 100 uM after 4 days by thioflavin-T based assay (reference value: 178.07 +/- 17.24)
[22] = Disaggregation of Cu2+ induced amyloid beta (1 to 40) preformed fibrils assessed as aggregation level at 100 uM after 4 days by UV-visible turbidity method (reference value: 143.11 +/- 0.76%)
[23] = Disaggregation of Cu2+ induced amyloid beta (1 to 40) preformed fibrils assessed as fluorescence emission at 100 uM after 12 days by thioflavin-T based assay (reference value: 150.21 +/- 2.32)
[24] = Disaggregation of Cu2+ induced amyloid beta (1 to 40) preformed fibrils assessed as aggregation level at 100 uM after 12 days by UV-visible turbidity method (reference value: 120.73 +/- 1.86%)
[25] = target: Amyloid-beta precursor protein (Homo sapiens) (UniProt P05067); assay: Disaggregation of self-induced amyloid beta (1 to 40) (unknown origin) preformed fibrils assessed as fluorescence emission at 100 uM after 4 days by thioflavin-T based assay; set-up: reference not given here
[26] = target: Amyloid-beta precursor protein (Homo sapiens) (UniProt P05067); assay: Disaggregation of self-induced amyloid beta (1 to 40) (unknown origin) preformed fibrils assessed as aggregation level at 100 uM after 4 days by UV-visible turbidity method
[27] = target: Amyloid-beta precursor protein (Homo sapiens) (UniProt P05067); assay: Disaggregation of self-induced amyloid beta (1 to 40) (unknown origin) preformed fibrils assessed as fluorescence emission at 100 uM after 12 days by thioflavin-T based assay; set-up: reference not given here
[28] = target: Amyloid-beta precursor protein (Homo sapiens) (UniProt P05067); assay: Disaggregation of self-induced amyloid beta (1 to 40) (unknown origin) preformed fibrils assessed as aggregation level at 100 uM after 12 days by UV-visible turbidity method
[29] = target: Amyloid-beta precursor protein (Homo sapiens) (UniProt P05067); assay: Induction of amyloid beta (1 to 40) (unknown origin) amorphous aggregation at 100 uM after 10 days
[30] = Toxicity in Tetrahymena thermophila assessed as decrease in viability after 48 hrs by MTT assay; format: organism-based; details: Tetrahymena thermophila cells, read-out: LD50
Tetrahymena thermophila = assay: Toxicity in Tetrahymena thermophila assessed as decrease in viability after 48 hrs by MTT assay relative to resveratrol; format: organism-based; details: in vivo
[31] = Cytotoxicity against human HEK293 cells assessed as decrease in cell viability after 48 hrs by MTT assay; format: cell-based; details: read-out: LD50
HEK293 = assay: Cytotoxicity against human HEK293 cells assessed as decrease in cell viability after 48 hrs by MTT assay relative to resveratrol; format: cell-based; details: hek293, 48 h

Sequence of Amyloid-beta precursor protein (Homo sapiens) (P05067 whole entry): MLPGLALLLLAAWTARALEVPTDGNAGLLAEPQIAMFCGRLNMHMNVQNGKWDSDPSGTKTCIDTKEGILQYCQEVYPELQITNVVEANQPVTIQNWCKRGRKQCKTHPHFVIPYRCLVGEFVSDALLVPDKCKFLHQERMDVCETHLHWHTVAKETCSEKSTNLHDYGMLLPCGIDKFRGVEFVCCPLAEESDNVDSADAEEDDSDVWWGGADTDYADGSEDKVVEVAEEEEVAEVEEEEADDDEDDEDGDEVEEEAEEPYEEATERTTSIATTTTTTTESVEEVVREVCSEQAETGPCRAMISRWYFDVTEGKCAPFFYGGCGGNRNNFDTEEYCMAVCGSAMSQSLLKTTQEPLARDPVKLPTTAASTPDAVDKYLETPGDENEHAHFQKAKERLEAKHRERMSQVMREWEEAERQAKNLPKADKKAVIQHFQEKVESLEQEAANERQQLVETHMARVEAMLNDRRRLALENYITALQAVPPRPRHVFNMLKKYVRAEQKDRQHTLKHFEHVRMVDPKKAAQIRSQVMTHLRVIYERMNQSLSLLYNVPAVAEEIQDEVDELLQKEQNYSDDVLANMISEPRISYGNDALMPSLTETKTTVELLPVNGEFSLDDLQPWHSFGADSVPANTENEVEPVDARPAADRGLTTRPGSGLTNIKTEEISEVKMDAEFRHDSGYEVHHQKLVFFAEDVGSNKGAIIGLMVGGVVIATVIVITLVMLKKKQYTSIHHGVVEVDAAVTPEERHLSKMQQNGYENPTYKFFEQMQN
T1 sequence (P56817 whole entry): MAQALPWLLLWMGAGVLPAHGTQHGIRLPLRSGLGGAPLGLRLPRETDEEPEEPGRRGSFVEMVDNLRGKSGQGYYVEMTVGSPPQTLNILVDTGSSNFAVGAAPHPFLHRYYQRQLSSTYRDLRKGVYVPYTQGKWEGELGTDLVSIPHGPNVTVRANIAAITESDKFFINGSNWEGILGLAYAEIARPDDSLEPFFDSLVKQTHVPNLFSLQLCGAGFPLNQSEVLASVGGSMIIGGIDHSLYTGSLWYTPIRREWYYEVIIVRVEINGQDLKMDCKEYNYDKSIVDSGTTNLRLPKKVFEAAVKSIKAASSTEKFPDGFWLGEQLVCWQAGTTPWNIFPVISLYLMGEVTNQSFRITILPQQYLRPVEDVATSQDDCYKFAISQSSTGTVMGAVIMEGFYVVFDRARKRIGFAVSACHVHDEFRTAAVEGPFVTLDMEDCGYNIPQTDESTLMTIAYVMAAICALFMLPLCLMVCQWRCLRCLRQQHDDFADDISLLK

Row | SMILES | inhibition [7] [%] | ORAC (Trolox equivalents) [8] | Flu intensity [9] | Activity [10] [%] | Flu intensity [11] | Activity [12] [%] | Flu intensity [13] | Activity [14] [%] | Flu intensity [15] | Activity [16] [%] | Flu intensity [17] | Activity [18] [%] | Flu intensity [19] | Flu intensity [21] | Activity [22] [%] | Flu intensity [23] | Activity [24] [%] | Flu intensity [25] | Flu intensity [27] | Activity [28] [%] | also measured
1 | Cl.Oc1ccc(/C=N/CCNCCn2cnc3ccccc32)c(O)c1 | 93.7 | 1.42 | 110 | 328 | 106 | 58.5 | 95 | 23.1 | 165 | 65.6 | 225 | 57.5 | 282 | 60.4 | 48.5 | 48 | 38.6 | 184 | 160 | 62.6 | inhibition (Beta-secretase 1 [1]): 62.5%; IC50 (Beta-secretase 1 [2]): 15.6 µM; IC50 (Beta-secretase 1 [3]): 18.5 µM; inhibition (Beta-secretase 1 [4]): < 50%; Activity [5]: Active; logKa [6]: 14.8; Activity [20]: 69%; Activity [26]: 72.2%; Activity [29]: 6 to 33%; LC50 at 48 h [30]: 529 µM; fold change (FC) (Tetrahymena thermophila): 2.2; CC50 at 48 h [31]: 184 µM; fold change (FC) (HEK293): 2.6
2 | Oc1ccc(/C=N/CCn2ccc3ccccc32)c(O)c1 | 68.5 | 5.22 | 243 | 722 | 203 | 112 | 155 | 37.6 | 273 | 109 | 336 | 86 | 298 | 73 | 58.6 | 59 | 47.5 | 213 | 183 | 71.8 | inhibition (Beta-secretase 1 [1]): 100%; IC50 (Beta-secretase 1 [2]): 4.4 µM; IC50 (Beta-secretase 1 [3]): 5.7 µM; inhibition (Beta-secretase 1 [4]): < 50%; Activity [5]: Active; logKa [6]: 13.4; Activity [20]: 73%; Activity [26]: 83.2%; Activity [29]: 6 to 33%; LC50 at 48 h [30]: 556 µM; fold change (FC) (Tetrahymena thermophila): 2.3; CC50 at 48 h [31]: 193 µM; fold change (FC) (HEK293): 2.7
3 | Oc1ccc(/C=N/CCn2ccc3cccnc32)c(O)c1 | 71.9 | 8.13 | 227 | 673 | 233 | 129 | 185 | 44.9 | 310 | 124 | 368 | 94 | 344 | 106 | 85.4 | 74.3 | 59.7 | 226 | 219 | 85.9 | inhibition (Beta-secretase 1 [1]): 31.6%; IC50 (Beta-secretase 1 [2]): 107 µM; inhibition (Beta-secretase 1 [4]): < 50%; Activity [5]: Active; logKa [6]: 12.7; Activity [20]: 84.2%; Activity [26]: 88.4%; Activity [29]: 6 to 33%; LC50 at 48 h [30]: 610 µM; fold change (FC) (Tetrahymena thermophila): 2.5; CC50 at 48 h [31]: 280 µM; fold change (FC) (HEK293): 3.9
4 | Oc1ccccc1/C=N/CCNc1ccnc2cc(Cl)ccc12 | 57.9 | 2.33 | 138 | 410 | 178 | 98.5 | 161 | 39.1 | 344 | 137 | 458 | 117 | 286 | 97 | 78 | 68.2 | 54.8 | 262 | 230 | 90 | inhibition (Beta-secretase 1 [1]): 29.6%; IC50 (Beta-secretase 1 [2]): > 160 µM; Activity [5]: Active; logKa [6]: 15.3; Activity [20]: 94.3%; Activity [26]: 102%; Activity [29]: 6 to 33%; CC50 at 48 h [31]: 113 µM; fold change (FC) (HEK293): 1.6
5 | Oc1ccc(/C=C/c2cc(O)cc(O)c2)cc1 [RESVERATROL] | 9 | 1.7 | 74.7 | 222 | 65 | 35.9 | 27.3 | 6.63 | 272 | 108 | 294 | 75.2 | 251 | 29.8 | 23.9 | 25.2 | 20.2 | 230 | 114 | 44.5 | LC50 at 48 h [30]: 240 µM; CC50 at 48 h [31]: 71.3 µM
